Marks after values point to notes of the source that are not given here.
Key:
[1] = tested on: C57 BL/6 mice; assay: Locomotor activity and locomotor pattern following repeated administration of morphinans or PCP; format: in vivo; conditions: for locomotor pattern (tracings): 40 mg/kg i.p. (PCP 5 mg/kg), FIG. 3; for marginal activity (circling behaviour; absolute turn angular): 20 or 40 mg/kg i.p./day x 7 (PCP 2.5 or 5 mg/kg), 3-min period; for marginal activity (circling behaviour; absolute turn angular) / locomotor activity (total distance moved): vs saline; for locomotor activity (total distance moved): 20 or 40 mg/kg i.p./day x 7 days, 30 min after final treatment
[2] = tested on: C57 BL/6 mice; assay: Conditioned place preference (psychological dependence) following repeated administration of morphinans or PCP; format: in vivo; conditions: 20 or 40 mg/kg i.p. (PCP 2.5 or 5 mg/kg); vs saline
Description: On day 14, the guillotine doors were raised. […] Data were analyzed between 0900 and 1700 hr.

[3] = tested on: MPTP-treated mice; assay: Hypokinesia (reduction in locomotor activity) induced by MPTP; format: in vivo; conditions: 12 or 24 mg/kg i.p. 30 min before MPTP (20 mg/kg/day x 7), last three days
[4] = tested on: LPS-treated mice; assay: Striatal dopamine and metabolites in LPS-treated mice; format: in vivo; conditions: for Concentration DA in the striatum: 3 weeks after LPS
Text: Control animals received striatal injection with PBS.
Mice were sacrificed at 3 weeks after LPS treatment.

[5] = tested on: MA-treated mice; assay: Methamphetamine (MA)-induced hyperthermia; format: in vivo; conditions: 24 mg/kg; MA 7.5 mg/kg i.p. x 4 at 2-h intervals
Description: Rectal temperature was recorded at 40 min after each MA treatment. […] Mice were sacrificed at 3 days after final MA injection.
FIGS. 10A-10B show effect of morphinans on the methamphetamine (MA)-induced hyperthermia. Mice received i.p. injections of MA (four injections of 7.5 mg/kg each) at 2-h intervals under the ambient temperature of 22.0±0.5° C. Temperatures were recorded at 40 min after each MA treatment (Arrow=MA injection).

[6] = tested on: MA-treated mice; assay: Hypokinesia induced by MA; format: in vivo; conditions: 12 and 24 mg/kg; 3 days after final MA
[7] = tested on: MA-treated mice; assay: Striatal dopamine and metabolites in MA-treated mice; format: in vivo; conditions: for Concentration DA in the striatum: 3 days after final MA
Text: Mice were sacrificed at 3 days after final MA injection.

[8] = tested on: cocaine-treated mice; assay: Cocaine-induced hyperlocomotion; format: in vivo; conditions: for effect on locomotor activity induced by low dose of cocaine: cocaine 5 mg/kg i.p. x 7 days, morphinan 15 or 30 mg/kg (DF 20 mg/kg) i.p.; for effect on hyperactivity induced by high dose of cocaine: cocaine 20 mg/kg i.p. x 7 days, morphinan 15 or 30 mg/kg i.p. 30 min before
Description: FIGS. 34A-34B show effect of morphinans on the cocaine-induced hyperactivity in the mice. Morphinans (15 and 30 mg/kg, i.p.) were administered 30 minutes prior to cocaine (5 and 20 mg/kg, i.p.). Central activity means relatively non-specific locomotor activity in the center of the box. Marginal activity means circling behaviors. All treatments were performed for 7 days.
FIGS. 35A-35D show effect of dimemorfan (DF) on cocaine-induced hyperactivity in the mice. DF (20 mg/kg, i.p.) was administered 30 minutes prior to cocaine (5 and 20 mg/kg, i.p.). All treatments were performed for 7 days.

[9] = tested on: MA-treated mice; assay: MA-induced hyperlocomotion; format: in vivo; conditions: morphinan 20 mg/kg i.p. 30 min before MA 1 mg/kg i.p./day x 7
Description: FIGS. 39A-39D show effect of morphinans on the MA-induced hyperactivity in the mice. Each morphinan (20 mg/kg, i.p.) was administered 30 minutes prior to MA (1 mg/kg, i.p.). All treatments were performed for 7 days.

[10] = tested on: MA-treated mice; assay: MA-induced behavioural sensitization; conditions: morphinan 20 mg/kg i.p., last 3 days of wash-out (Ex. 3.12)
Description: Morphinans (20 mg/kg, i.p.) were administered last 3 days of wash-out period.

[11] = tested on: NMDA receptor associated PCP sites; conditions: cited from earlier work
[12] = target: σ1 receptors (Homo sapiens, UniProt Q99720); conditions: cited from earlier work
[13] = tested on: kainate or maximal electric shock; conditions: kainate (24) or maximal electric shock (27); cited from earlier work
[14] = tested on: MA-treated mice; assay: Nigral TH-IR in MA-treated mice; conditions: 24 mg/kg i.p.
[15] = tested on: MA-treated mice; assay: MA-induced FRA-IR in the striatum; conditions: morphinan 20 mg/kg i.p.; MA 1 mg/kg i.p./day x 7
Description: Therefore, brains were removed and used for immunocytochemical analysis at 18 h after the final cocaine/MA treatment. The coronal sections containing striatum were processed for FRA immunocytochemistry. […] The FRA antibody was used at 1:2,000 as the optimal dilution. The FRA-IR in the striatum was calculated using image analysis systems with a polaroid digital microscopic camera (Optimas version 6.2).

[16] = tested on: LPS-treated mice; assay: Hypokinesia induced by intrastriatal LPS; conditions: 12 or 24 mg/kg, twice before bilateral intrastriatal LPS
[17] = tested on: MPTP-treated mice; assay: Striatal dopamine and metabolites (HPLC-EC) in MPTP-treated mice; conditions: for Concentration DA in the striatum: mean ± S.E.M., 8 animals
Description: Each morphinan was administered 30 min prior to every injection of MPTP for last three days (from day 4th to day 7th). Animals were sacrificed 24 h after the last MPTP treatment.
Brains were rapidly removed and cut into 1 mm coronal sections on ice. The striatum was punched using a fine pasteur pipette (3, 21, 22), and stored at −70° C. DA and its metabolites, 3,4-dihydroxyphenylacetic acid (DOPAC) and homovanilic acid (HVA) were measured by HPLC-eletrochemical detection (3, 21, 22). Briefly, the striatum was homogenized in 0.2 M perchloric acid containing 3,4-dihydroxybenzylamine as an internal standard (10 mg wet weight of tissue per ml). The homogenate was centrifuged and a 20-μl aliquot of the supernatant was injected into the HPLC equipped with an ODS-C18 column. The mobile phase was comprised of 26 ml of acetonitrile, 21 ml of tetrahydrofuran and 960 ml of 0.15 M monochloroacetic acid (pH 3.0) containing 50 mg/l of EDTA and 200 mg/l of sodium octyl sulfate. The amount of DA, DOPAC and HVA were determined by comparison of peak height ratio of tissue sample with standards, and were expressed in nanograms per 100 mg of wet weight of tissue.
Each morphinan was administered 30 min before every injection of MPTP for last three days. Animals were sacrificed at 24 h after the last MPTP injection.

[18] = tested on: cocaine-treated mice; assay: Cocaine-induced Fos-related antigen-immunoreactivity (FRA-IR) in the striatum; conditions: cocaine 5 mg/kg; morphinan 20 mg/kg i.p.
[19] = target: CB1 receptor (Rattus norvegicus, UniProt P20272); format: biochemical
CB1 receptor, sequence (P20272 whole entry): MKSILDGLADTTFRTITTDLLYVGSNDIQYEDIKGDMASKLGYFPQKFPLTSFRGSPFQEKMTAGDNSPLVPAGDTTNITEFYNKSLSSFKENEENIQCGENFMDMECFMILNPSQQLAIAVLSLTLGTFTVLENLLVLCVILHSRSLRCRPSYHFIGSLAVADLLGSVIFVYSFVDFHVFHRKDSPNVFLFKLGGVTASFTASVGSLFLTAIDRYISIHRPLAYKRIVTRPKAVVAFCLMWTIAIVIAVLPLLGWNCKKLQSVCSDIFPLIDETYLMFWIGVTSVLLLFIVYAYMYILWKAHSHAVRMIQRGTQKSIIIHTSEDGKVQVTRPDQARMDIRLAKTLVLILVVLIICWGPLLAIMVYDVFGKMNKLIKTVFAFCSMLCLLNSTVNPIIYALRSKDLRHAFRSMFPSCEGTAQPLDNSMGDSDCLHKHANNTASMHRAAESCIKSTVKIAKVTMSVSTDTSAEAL

σ1 receptors, sequence (Q99720 whole entry): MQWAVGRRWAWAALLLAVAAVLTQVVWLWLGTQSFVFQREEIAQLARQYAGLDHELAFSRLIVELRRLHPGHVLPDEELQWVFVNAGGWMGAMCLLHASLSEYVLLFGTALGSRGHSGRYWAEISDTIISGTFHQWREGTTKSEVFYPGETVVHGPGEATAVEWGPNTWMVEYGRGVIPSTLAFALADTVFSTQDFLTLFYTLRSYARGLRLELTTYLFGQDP

## C=CCOc1ccc2c(c1)[C@@]13CCCC[C@H]1[C@@H](C2)N(C)CC3 [AM, 3-allyloxy-17-methylmorphinan]
[1]
  locomotor pattern (tracings): did not produce significant marginal activity
  marginal activity (circling behaviour; absolute turn angular): did not significantly affect marginal activity
  locomotor activity (total distance moved): appeared to increase locomotor activity slightly
[2]
  conditioned place preference (CPP): almost no CPP effects
[3]
  effect on MPTP-induced reduction in locomotor activity: neither AM nor DF affected significantly the locomotor hypoactivity
[4]; 24 mg/kg pretreatment
  effect on LPS-induced reductions in striatal DA, DOPAC and HVA: did not alter LPS-induced reductions in DA, DOPAC and HVA levels
[4]; morphinan 12 (mg/kg) + LPS
  Concentration DOPAC in the striatum: 64 ± 8 ng/100 mg wet tissue
  Concentration HVA in the striatum: 75 ± 6 ng/100 mg wet tissue
[4]; morphinan 12 (mg/kg) + LPS, mean ± S.E.M., 8 animals
  Concentration DA in the striatum: 454 ± 55 ng/100 mg wet tissue
[4]; morphinan 24 (mg/kg) + LPS
  Concentration DOPAC in the striatum: 66 ± 7 ng/100 mg wet tissue
  Concentration HVA in the striatum: 70 ± 8 ng/100 mg wet tissue
  Concentration DA in the striatum: 452 ± 49 ng/100 mg wet tissue
[5]
  effect on MA-induced hyperthermia (rectal temperature): attenuated by all morphinans used in this study
[6]
  effect on MA-induced reduction in locomotor activity: significantly prevented MA-induced reduction in locomotor activity
[7]; 24 mg/kg pretreatment
  effect on MA-induced reductions in striatal DA, DOPAC and HVA: significantly protected
[7]; morphinan 12 (mg/kg) + MA
  Concentration DOPAC in the striatum: 89 ± 9 ng/100 mg wet tissue
  Concentration HVA in the striatum: 79 ± 9 ng/100 mg wet tissue
[7]; morphinan 12 (mg/kg) + MA, mean ± S.E.M., 8 animals
  Concentration DA in the striatum: 601 ± 62 ng/100 mg wet tissue
[7]; morphinan 24 (mg/kg) + MA
  Concentration DOPAC in the striatum: 96 ± 10^b ng/100 mg wet tissue
  Concentration HVA in the striatum: 92 ± 10^b ng/100 mg wet tissue
  Concentration DA in the striatum: 749 ± 64^b ng/100 mg wet tissue
[8]
  effect on locomotor activity induced by low dose of cocaine: consistently attenuated locomotor activity induced by a low dose of cocaine
  effect on hyperactivity induced by high dose of cocaine: not uniform
[9]
  effect on MA-induced hyperlocomotion: consistently effective in attenuating hyperlocomotion induced by MA
[10]
  effect on MA-induced behavioural sensitization: significantly reduced
[11]
  affinity for NMDA receptor associated PCP sites: very low affinities
[12]
  affinity for σ1 receptors: high affinity ligands
[13]
  anticonvulsant effect: exhibited anticonvulsant effects
[14]
  effect on MA-induced decrease in nigral TH-positive cells: significantly attenuated the decrease in TH-positive cells
[15]
  effect on MA-induced FRA-IR in the striatum: apparently attenuated
[16]
  effect on LPS-induced decrease in locomotor activity: neither AM nor DF were effective in attenuating locomotor hypoactivity
[17]; 24 mg/kg pretreatment
  effect on MPTP-induced reductions in striatal DA, DOPAC and HVA: did not alter reductions in DA, DOPAC and HVA
[17]; morphinan 12 (mg/kg) + MPTP
  Concentration DOPAC in the striatum: 54 ± 6 ng/100 mg wet tissue
  Concentration HVA in the striatum: 69 ± 5 ng/100 mg wet tissue
  Concentration DA in the striatum: 468 ± 52 ng/100 mg wet tissue
[17]; morphinan 24 (mg/kg) + MPTP
  Concentration DOPAC in the striatum: 66 ± 8 ng/100 mg wet tissue
  Concentration HVA in the striatum: 78 ± 7 ng/100 mg wet tissue
  Concentration DA in the striatum: 539 ± 64 ng/100 mg wet tissue
[18]
  effect on cocaine-induced FRA-IR in the striatum: apparently attenuated

## CCCCCCC(C)(C)c1ccc([C@@H]2C[C@H](O)CC[C@H]2CCCO)c(O)c1 [CP55,940, [1α, 2β-(R)-5α]-(−)-5-(1,1-dimethyl)-2-[5-hydroxy-2-(3-hydroxypropyl)cyclohexyl-phenol], reference compound]
[19]
  stimulation of GTP γS binding: about 120%

## CN1CC[C@]23CCCC[C@H]2[C@H]1Cc1ccc(O)cc13 [DX, 3-hydroxy-17-methylmorphinan, reference compound]
[1]
  locomotor pattern (tracings): produced marginal activity
  marginal activity (circling behaviour; absolute turn angular): significant increase in marginal activity
  locomotor activity (total distance moved): significantly increased locomotor activity
[2]
  conditioned place preference (CPP): produced CPP in a dose-dependent manner
[12]
  affinity for σ1 receptors: high affinity ligands

## COc1ccc2c(c1)[C@@]13CCCC[C@H]1[C@@H](C2)NCC3 [MM, 3-methoxymorphinan, reference compound]
[8]
  effect on locomotor activity induced by low dose of cocaine: did not influence locomotor activity mediated by a low dose of cocaine
  effect on hyperactivity induced by high dose of cocaine: attenuated
[18]
  effect on cocaine-induced FRA-IR in the striatum: Neither DM nor MM affects this induction of FRA-IR

## c1ccc(C2(N3CCCCC3)CCCCC2)cc1 [PCP, phencyclidine, reference compound]
[1]
  locomotor pattern (tracings): produced marginal activity
  marginal activity (circling behaviour; absolute turn angular): much stronger stereotypies
[2]
  conditioned place preference (CPP): most significant CPP
